Laboratory results published in patent US11911464B2, “Anti-parasitic immunological compositions” (Prommune, Inc., priority 2018, dated 2024).
Non-standard residues stand in square brackets, D forms with d. No end group written: not given here. NMeL = CN[C@@H](CC(C)C)C(=O)O

Key:
[1] = tested on: human monocyte-derived macrophages and DCs; assay: Cytokine release from human macrophages and DCs; format: cell-based; conditions: 50 μg/ml, after 24 hours of incubation
Protocol: Human monocyte-derived macrophages and DCs were incubated with EP67 (50 μg/ml) and scrambled EP67 (50 μg/ml) for 6 and 24 hours. Supernatants were collected and analyzed for the presence of the following cytokines: IL-1beta, IL-2, IL-4, IL-6, IL-10, IL-12p70, IL-13, IL-15, TNF-alpha, and IFN-gamma. […] It is worth noting that the prominent cytokines released at 6 and 24 hours in response to EP67 (IL-1beta, IL-2, IL-6, and TNF-alpha) represent a TH1/pro-inflammatory bias relative to the TH2/anti-inflammatory cytokines (IL-4, IL-5, IL-10, and IL-13). This TH1 bias is in keeping with earlier observations with EP67 and is an important immunologic component for an effective immune response to T. gondii.

human monocytes [2] = assay: Differentiation of human peripheral blood monocytes (morphology); format: cell-based; conditions: 50 μg/ml, 48 hrs
From the text: EP67 Differentiates Human Peripheral Blood Monocytes to Cells with Phenotypes Characteristic of Macrophages/DCs.

[3] = tested on: bone marrow-derived BALB/c DCs; assay: Murine dendritic cell activation (cytokine release) by EP67 vaccines; format: cell-based, mouse; conditions: 6 hr exposure
From the text: A subset of vaccines were developed with murine DC's from BALB/c bone marrow, and examined for cytokine response. […] Bone marrow-derived BALB/c DCs were separately exposed to EP67-containing vaccines #1 (TgSAG1) and #2 (TgGRA1) (Example 3), and compared to sham exposure (media). […] KC/GRO, also known as CXCL1, is a potent neutrophil chemotactic cytokine. Increases in INF-gamma, IL-1b, and TNF-α were also observed, and are in-line with expectations of EP67 engagement of the C5a receptor and subsequent activation of dendritic cells.

DCs = assay: Surface activation markers of exposed dendritic cells by flow cytometry; format: cell-based, mouse; conditions: 6 hours exposure
Protocol: […] vaccines were investigated and found to increase surface activation markers of exposed white blood cells, such as DCs shown in FIG. 10, which were exposed for 6 hours to Vaccines #1 (TgSAG1) and #2 (TgGRA1). Following exposure, cells were fixed and stained with antibodies to measure cell surface markers of intact cells by flow cytometry.

[4] = tested on: human monocytes and monocyte-derived dendritic cells; assay: Multiplex cytokine release from human monocytes and monocyte-derived dendritic cells (EP67 analogues); format: cell-based; conditions: 50 μg/ml, 6 and 24 hours
From the text: Cytokine Analysis. Considerable time was spent in learning the methods for the rapid, efficient, and high throughput method of cytokine analysis using a multiplex instrument for large panels of cytokines (MesoScale QuickPlex SQ 120). With this instrument, we tested the EP67- and analogue-mediated release of a pro-inflammatory and anti-inflammatory panel of cytokines (IL-1beta, IL-2, IL-4, IL-6, IL-10, IL-12p70, IL-13, IL-15, TNF-α, and IFN-gamma) from human monocytes and monocyte-derived dendritic cells over the course of 6 and 24 hours of exposure 50 μg/ml EP67, scrambled EP67 (scEP67), and EP67 analogues (EP144, EP146, and EP147).

[5] = tested on: bone marrow-derived mouse dendritic cells; assay: qPCR detection of cytokine expression following exposure to EP67; format: cell-based; conditions: EP67 50 μg/ml, 24 hrs, vs PBS controls, normalized to Actin B
Protocol: Free EP67 (unattached to any epitope) was used as a control to stimulate murine bone marrow-derived dendritic cells (See Table 1 below). […] Testing these and additional cytokines (at the gene and protein-expression levels) against all of the synthesized and control vaccines is carried out. Similarly, we will also be analyzing surface marker expression indicative of DC activation.
EP67 (50 μg/ml) was incubated with bone marrow-derived mouse dendritic cells (24 hrs) following in vitro maturation. Fold changes in expression were compared to PBS controls and normalized to Actin B gene expression. Three replicates were analyzed per gene. […] A positive control, bacterial LPS, was also evaluated and produced upregulation of at least 20-fold above PBS controls for all evaluated cytokines.

RAW 264.7 cells = assay: TNF-alpha and IL-6 secretion from RAW 264.7 cells; format: cell-based, mouse; conditions: 6 hr and 24 hr exposures
Protocol: Although murine work was achieved using commercially available BALB/c cells, we felt it useful to explore additional cell options for in vitro evaluation of EP67 vaccine candidates. […] FIGS. 13A and 13B show the results of RAW 264.7 cells activated by EP67. In order to evaluate a cell line that is responsive to both EP67 and C5a (the complement protein from which the sequence of EP67 is derived), RAW 264.7 were tested for secretion of TNF-a and IL-6. For both cytokines, supernatants from both 6 hr and 24 hr exposures of recombinant C5a were high.

murine splenocytes = assay: Cytokine release from murine splenocytes; format: cell-based, mouse; conditions: 50 μg/ml
Protocol: Splencocytes were obtained from normal Balb/c mice (ca. 2 months) and aged (ca. 17 months) sentinel mice of undetermined background (a gift from the University of Nebraska Medical Center Animal Facility). Spelocytes were cultured in the presence of EP67 and scrambled EP67 (50 μg/ml) for 24 hours, supernatants harvested, and analyzed for the presence of IL-1beta, IL-2, IL-4, IL-5, IL-6, KC/GRO, IL-10, IL-12p70, TNF-alpha, and IFN-gamma. […] Splenocytes were not our original choice of APCs from mice to evaluate the effects of EP67/EP67-based vaccines, but they were chosen for this first assessment as a matter of convenience to help with getting our cell culture protocols and assays established and verified.

human monocytes [6] = assay: Surface marker immunophenotype of human monocytes incubated with EP67; format: cell-based; conditions: 50 μg/ml, over 7 days
Protocol: EP67 Differentiates Human Peripheral Blood Monocytes to Cells with Immunophenotypes Characteristic of Macrophages/DCs. Human monocytes were incubated with EP67 (50 μg/ml) and surface markers analyzed over the course of 7 days.

Question: Which “release of IL-1beta, IL-2, IL-6, IFN-gamma, and TNF-alpha” value [1] does the source give for “(MeL)RMYKPaFDS ([NMeL]RMYKP[dA]FDS) [scrmbEP67, reference compound]” here?
Answer: not

Question: What about the “conversion of monocytes into elongated, adhered macrophage/DC-like cells” value (human monocytes [2]) of the same molecule?
Answer: not

Question: What does the source list for “EEVIDTMKSMQRDEERRYSFKDMP(MeL)aR (EEVIDTMKSMQRDEERRYSFKDMP[NMeL][dA]R; not fully specified; printed as EEVIDTMKSMQRDEERRYSFKDMP(MeL)aR) [Vaccine 2]”?
Answer: INF-gamma, IL-1b, and TNF-α release [3]: Increases; cytokine release compared to sham (media) [3]: cytokine release above the controls; CD80, CCR7, and MHC Class II molecules compared to control (media only) (DCs): Elevation occurred; CD80 increase compared to control (media only) (DCs): > 80%

Question: Which results are given for “SFKDILPKLSENPWQRRYSFKDMP(MeL)aR (SFKDILPKLSENPWQRRYSFKDMP[NMeL][dA]R; not fully specified; printed as SFKDILPKLSENPWQRRYSFKDMP(MeL)aR) [Vaccine 1]”?
Answer: INF-gamma, IL-1b, and TNF-α release [3]: Increases; cytokine release compared to sham (media) [3]: cytokine release above the controls; CD80, CCR7, and MHC Class II molecules compared to control (media only) (DCs): Elevation occurred

Question: YSFKDM(Cha)LaR [EP147] was tested. Which “cytokine release (pro- and anti-inflammatory panel)” value [4] did it give?
Answer: increase in cytokine release

Question: Which results are given for “YSFKDMP(MeL)aR (YSFKDMP[NMeL][dA]R; not fully specified; printed as YSFKDMP(MeL)aR) [EP67]”?
Answer: Fold change CXCL1 (a.k.a. KC) expression [5]: 1.61 fold; Fold change IL-6 expression [5]: 3.40 fold; Fold change IL-10 expression [5]: 4.13 fold; Fold change TNF alpha expression [5]: 2.14 fold; release of IL-1beta, IL-2, IL-6, IFN-gamma, and TNF-alpha [1]: induced the release; conversion of monocytes into elongated, adhered macrophage/DC-like cells (human monocytes [2]): converts rounded and non-adhered monocytes into elongated, adhered cells; secretion of TNF-a and IL-6 (RAW 264.7 cells): statistically significant (p<0.05) increases; cytokine release relative to controls, aged sentinel mice splenocytes (murine splenocytes; aged ca. 17 months): more pronounced effect; cytokine release relative to controls, Balb/c splenocytes (murine splenocytes; normal Balb/c mice ca. 2 months): little effect; expression of CD14, CD16, CD11b, and CD33 (human monocytes [6]): moderately enhanced; expression of CD80 and CD206 (human monocytes [6]): significantly enhanced

B1: recombinant C5a: the complement protein from which the sequence of EP67 is derived (protein, UniProt P01031 678-751, looked up)
C5a anaphylatoxin: TLQKKIEEIAAKYKHSVVKKCCYDGACVNNDETCEQRAARISLGPRCIKAFTECCVVASQLRANISHKDMQLGR
modifications: C5a anaphylatoxin
Question: With B1 as the molecule, how does the “secretion of TNF-a and IL-6” value (RAW 264.7 cells) read?
Answer: high
